Literature values as cited in patent publication US10206934B2, “Implants and methods for treating inflammation-mediated conditions of the eye” (Allergan, Inc., priority 2000, dated 2019).

Settings: fold less potent; 25 mg equivalent to 1 mg dexamethasone

C[C@]12CCC(=O)C=C1CC[C@@H]1[C@@H]2[C@@H](O)C[C@@]2(C)[C@H]1CC[C@]2(O)C(=O)CO [hydrocortisone]
Potency relative to dexamethasone: approximately twentyfivefold
